Common to all, as to experiment: In vitro assay of antibacterial activity (agar dilution MIC)
Common to all, as to format: cell-based
A general note: In agar dilution the substance is mixed into plates at graded concentrations.

One assay concerns CANDIDA ALBICANS CCH 442. The note with it: BHI agar, 35-37 °C for 20 to 24 hours, unit assumed. The method, then: (§1) Representative compounds of the present invention were assayed in vitro for antibacterial activity as follows: Twelve petri dishes containing successive aqueous dilutions of the test compound mixed with 10 mL of sterilized Brain Heart Infusion (BHI) agar (Difco 0418-01-5) were prepared. Each plate was inoculated with 1:100 (or 1:10 for slow-growing strains, such as Micrococcus and Streptococcus) dilutions of up to 32 different microorganisms, using a Steers replicator block. The inoculated plates were incubated at 35-37 °C for 20 to 24 hours. In addition, a control plate, using BHI agar containing no test compound, was prepared and incubated at the beginning and end of each test.
(§2) An additional plate containing a compound having known susceptibility patterns for the organisms being tested and belonging to the same antibiotic class as the test compound was also prepared and incubated as a further control, as well as to provide test-to-test comparability. Erythromycin A was used for this purpose.
(§3) After incubation, each plate was visually inspected. The minimum inhibitory concentration (MIC) was defined as the lowest concentration of drug yielding no growth, a slight haze, or sparsely isolated colonies on the inoculum spot as compared to the growth control.

For the next assay, the system named is EN[…] ATCC 8043. The note with it: ENTEROCOCCUS FAECIUM ATCC 8043; BHI agar, 35-37 °C for 20 to 24 hours; unit assumed. The method, then:
as §1, §2, §3

The subject of a further assay is ESCHERICHIA COLI DC-2. The note with it: BHI agar, 35-37 °C for 20 to 24 hours, unit assumed. The method, then: as §1, §2, §3
Another assay relates to ESCHERICHIA COLI JUHL. The note with it: ESCHERICHIA COLI JUHL; BHI agar, 35-37 °C for 20 to 24 hours; unit assumed. The procedure: as §1, §2, §3
The subject of the next assay is ESCHERICHIA COLI SS. The note with it: ESCHERICHIA COLI SS; BHI agar, 35-37 °C for 20 to 24 hours; unit assumed. The procedure: as §1, §2, §3
For assay [1], the system named is MYCOBACTERIUM SMEGMATIS ATCC 114. The note with it: MYCOBACTERIUM SMEGMATIS ATCC 114; BHI agar, 35-37 °C for 20 to 24 hours; unit assumed. The procedure: as §1, §2, §3
Another assay concerns M[…] ATCC 4698. The note with it: MICROCOCCUS LUTEUS ATCC 4698; BHI agar, 35-37 °C for 20 to 24 hours; unit assumed. The procedure:
as §1, §2, §3

In the next assay the test system is M[…] ATCC 9341. As to conditions: MICROCOCCUS LUTEUS ATCC 9341; BHI agar, 35-37 °C for 20 to 24 hours; unit assumed. The method, then:
as §1, §2, §3

The next assay relates to N. ASTEROIDES ATCC 9970. The note with it: BHI agar, 35-37 °C for 20 to 24 hours, unit assumed. The method, then: as §1, §2, §3
Assay [2] has as its system STAPHYLOCOCCUS AUREUS 1775. The note with it: BHI agar, 35-37 °C for 20 to 24 hours, unit assumed. The method, then: as §1, §2, §3
The subject of assay [3] is STAPHYLOCOCCUS AUREUS A-5278. The note with it: BHI agar, 35-37 °C for 20 to 24 hours, unit assumed. The method, then:
as §1, §2, §3

Assay [4] concerns STAPHYLOCOCCUS AUREUS A5177. As to conditions: BHI agar, 35-37 °C for 20 to 24 hours, unit assumed. The method, then:
as §1, §2, §3

Assay [5] relates to STAPHYLOCOCCUS AUREUS ATCC 6538P. As to conditions: BHI agar, 35-37 °C for 20 to 24 hours, unit assumed. The procedure: as §1, §2, §3
For assay [6], the system named is STAPHYLOCOCCUS AUREUS CMX 553. The note with it: BHI agar, 35-37 °C for 20 to 24 hours, unit assumed. The method, then: as §1, §2, §3
Assay [7] deals with STAPHYLOCOCCUS AUREUS CMX 642A. As to conditions: BHI agar, 35-37 °C for 20 to 24 hours, unit assumed. The procedure:
as §1, §2, §3

Assay [8] deals with STAPHYLOCOCCUS AUREUS NCTC10649M. The note with it: BHI agar, 35-37 °C for 20 to 24 hours, unit assumed. The procedure:
as §1, §2, §3

For assay [9], the system named is STAPHYLOCOCCUS EPIDERMIDIS 3519. The note with it: STAPHYLOCOCCUS EPIDERMIDIS 3519; BHI agar, 35-37 °C for 20 to 24 hours; unit assumed. The procedure: as §1, §2, §3
The subject of assay [10] is STREPTOCOCCUS BOVIS A-5169. As to conditions: STREPTOCOCCUS BOVIS A-5169; BHI agar, 35-37 °C for 20 to 24 hours; unit assumed. The procedure: as §1, §2, §3
Assay [11] has as its system STREPTOCOCCUS PYOGENES 930. As to conditions: STREPTOCOCCUS PYOGENES 930; BHI agar, 35-37 °C for 20 to 24 hours; unit assumed. The method, then: as §1, §2, §3
Assay [12] relates to STREPTOCOCCUS PYOGENES EES61. The note with it: STREPTOCOCCUS PYOGENES EES61; BHI agar, 35-37 °C for 20 to 24 hours; unit assumed. The method, then:
as §1, §2, §3

The subject of assay [13] is STREPTOCOCCUS PYOGENES PIU 2548. The note with it: STREPTOCOCCUS PYOGENES PIU 2548; BHI agar, 35-37 °C for 20 to 24 hours; unit assumed. The procedure: as §1, §2, §3
Another assay concerns STR[…] 508. The note with it: STREPTOCOCCUS AGALACTIAE CMX 508; BHI agar, 35-37 °C for 20 to 24 hours; unit assumed. The method, then:
as §1, §2, §3

On to `CC[C@H]1OC(=O)[C@H](C)C(=O)[C@H](C)[C@@H](O[C@@H]2O[C@H](C)C[C@H](N(C)C)[C@H]2O)[C@](C)(OC)C[C@@H](C)C2=Nc3cccnc3N3C(=O)O[C@@]1(C)[C@H]3[C@H]2C` [Ex 7, Compound of Formula (II): R^1 is methoxy; R^2 is H, R^3 is absent, the double bond is present, B, D and E are H, and Y and Z taken together with the atom to which they are attached form an oxo group], for which the Antibacterial Activity (MIC's) in the assay with CANDIDA ALBICANS CCH 442 was over 100 µg/mL; in the assay with EN[…] ATCC 8043, 0.1 µg/mL; with ESCHERICHIA COLI DC-2 it was over 100 µg/mL; in the assay on ESCHERICHIA COLI JUHL, over 100 µg/mL; in the assay on ESCHERICHIA COLI SS, 0.78 µg/mL; in assay [1] it was 3.1 µg/mL. In addition, the Antibacterial Activity (MIC's) in the assay on M[…] ATCC 4698 was 0.39 µg/mL; in the assay on M[…] ATCC 9341 it was 0.05 µg/mL; in the assay with N. ASTEROIDES ATCC 9970, 0.1 µg/mL; in assay [2], over 100 µg/mL; in assay [3], over 100 µg/mL; in assay [4] it was 0.39 µg/mL. Besides, the Antibacterial Activity (MIC's) in assay [5] is 0.39 µg/mL; in [6], 0.39 µg/mL; in assay [7], 0.39 µg/mL; in assay [8], 0.39 µg/mL; in assay [9] it was 0.39 µg/mL; in [10], 0.05 µg/mL. The Antibacterial Activity (MIC's) in [11] is over 100 µg/mL; in [12] it was 0.05 µg/mL; in assay [13] it was 0.39 µg/mL; in the assay on STR[…] 508, 0.05 µg/mL.

Values taken from patent EP0984975B1, “MULTICYCLIC ERYTHROMYCIN DERIVATIVES” (Abbott Laboratories, priority 1997, dated 1998).
